Measured values taken from patent US6875608B1, “Propagation and/or derivation of embryonic stem cells” (University of Edinburgh, priority 1998, dated 2005).

T1: GRgp(Y118F) chimeric receptor (UniProt Q00560+Q99062, Y757F)
T1 construct: fusing the extracellular domain of the human G-CSFR to an EcoRI fragment of mouse gp130; an EcoRI fragment of mouse gp130 containing the transmembrane domain and the entire cytoplasmic region; expressed in transfected cells
T1 sequence (Q99062+Q00560 with tags, fused parts or gaps Q00560:Y757F): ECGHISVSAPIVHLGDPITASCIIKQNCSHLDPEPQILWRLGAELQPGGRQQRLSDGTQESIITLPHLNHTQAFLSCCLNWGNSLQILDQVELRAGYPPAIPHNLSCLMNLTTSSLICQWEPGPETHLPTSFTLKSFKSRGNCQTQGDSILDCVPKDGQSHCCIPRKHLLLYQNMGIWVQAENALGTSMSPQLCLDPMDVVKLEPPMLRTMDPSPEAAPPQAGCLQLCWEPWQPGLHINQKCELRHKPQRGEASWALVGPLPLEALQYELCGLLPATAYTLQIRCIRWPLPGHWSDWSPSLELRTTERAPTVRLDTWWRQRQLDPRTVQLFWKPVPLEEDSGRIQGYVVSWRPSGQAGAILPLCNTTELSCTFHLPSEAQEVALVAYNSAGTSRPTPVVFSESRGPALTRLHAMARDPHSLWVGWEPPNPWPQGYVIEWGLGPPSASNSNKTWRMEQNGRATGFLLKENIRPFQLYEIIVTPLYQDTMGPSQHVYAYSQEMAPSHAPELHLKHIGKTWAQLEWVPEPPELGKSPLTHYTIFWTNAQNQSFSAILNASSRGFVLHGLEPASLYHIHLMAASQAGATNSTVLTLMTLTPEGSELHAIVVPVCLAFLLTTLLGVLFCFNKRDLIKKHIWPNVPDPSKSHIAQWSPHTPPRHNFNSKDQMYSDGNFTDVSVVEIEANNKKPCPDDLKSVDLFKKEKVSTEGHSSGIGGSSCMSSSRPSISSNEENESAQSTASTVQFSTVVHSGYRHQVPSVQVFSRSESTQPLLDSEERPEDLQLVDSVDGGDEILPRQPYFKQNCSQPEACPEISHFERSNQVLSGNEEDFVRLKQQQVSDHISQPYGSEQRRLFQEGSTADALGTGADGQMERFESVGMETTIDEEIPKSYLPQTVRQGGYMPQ

B1: G-CSF: cytokine ligand used to stimulate chimaeric G-CSFR/gp130 receptors in ES cell transfectants (protein, UniProt P09919 31-207, looked up)
Granulocyte …: TPLGPASSLPQSFLLKCLEQVRKIQGDGAALQEKLVSECATYKLCHPEELVLLGHSLGIPWAPLSSCPSQALQLAGCLSQLHSGLFLYQGLLQALEGISPELGPTLDTLQLDVADFATTIWQQMEELGMAPALQPTQGAMPAFASAFQRRAGGVLVASHLQSFLEVSYRVLRHLAQP

Tests used:
ZIN40 ES cells = experiment: Chimaera analysis of ES cell pluripotency; type: in vivo; settings: 48 hours LIF plus 25 μM PD098059, 24 hours LIF only, injected into mouse blastocysts, day 9.5
Protocol: ZIN40 ES cells were treated wit 25 μM PD098059 plus 5 U/ml LIF for 48 hours, re-fed with medium containing LIF for a further 24 hours and than microinjected into C57BL/6 blastcysts. Embryos were collected at day 9.5 of pregnancy and stained for β-galactosidase activity.
ZIN40 ES cells were injected into C57BL/6 blastocysts and transferred into pseudopregnant mice. Mice were sacrificed at day 9.5 of pregnancy and the embryos were stained with X-gal.
We therefore determined whether ES cells propagated in the absence of gp130-dependent ERK. signaling have the capacity to incorporate into the developing embryo and differentiate appropriately. Cells were cultured at low density (1000 cell/cm^2) for 48 hours in the presence of LIF plus 25 μM PD098059, or in the absence of LIF. They were then re-fed with medium containing LIF but lacking the inhibitor for a further 24 hours before microinjection into mouse blastocysts. ZIN40 cells were used in this experiment, since they carry a nuclear localised β-galactosidase marker that is widely expressed in differentiated cell types. […] However, cells cultured in the absence of LIF for 48 hours were incapable of colonizing the embryo.

IOUD2 ES cells = experiment: Aggregate (embryoid body) culture, staining for Oct4 β-galactosidase; type: cell-based, mouse
Excerpt: Aggregation induces ES cells to differentiate and form structures known as embryoid bodies that contain multiple differentiated cell types. Undifferentiated cells are largely or wholly eliminated during embryoid formation due to induced differentiation and/or apoptosis.
IOUD2 ES cells, which carry a targeted integration of βgeo into the Oct4 locus were used to enable visualisation of undifferentiated cells by histochemical staining for β-galactosidase. Aggregates were formed in hanging drops by seeding 100 cells/20 μl drop in the presence of 0, 25, 50, 75 or 100 μm PD089059. Aggregates were maintained for 6 days, then transferred to gelatin-coated dishes and allowed to attach overnight. Cultures were then fixed and stained for β-galactosidase activity. In the absence of the Mek inhibitor, the embryoid bodies were well differentiated and very few Oct4 β-galactosidase expressing cells were present in the outgrowths. […] At PD089059 concentrations of 75-100 μm, the great majority of cells were undifferentiated.

ERK1 and ERK2 = experiment: PD098059 dependent inhibition of ERK activation (immunoblot with phosphospecific anti-ERK antibodies); type: cell-based, mouse; settings: GRgp(278) cells, 48 hours inhibitor plus LIF, then G-CSF 30 ng/ml 10 minutes
Protocol: For analysis of STAT3 and ERK phosphorylation, 1×10^6 ES cells were plated per well of 6-well dishes. Cells were serum starved and treated with cytokines as described above and then lysed in 100 μl SDS sample buffer. Ten microlitre aliquots were fractionated on a 10% SDS polyacrylamide gel, electroblotted onto nitrocellulose and probed with anti-ERK and anti-STAT3 antibodies according to the directions provided by supplier (New England Biolabs).
The continued proliferation of undifferentiated ES cells at inhibitory concentrations of PD098059 confirms that gp130-dependent activation of ERK1 and ERK2 is not required for the propagation of ES cells.

[1] = biological target: T2, GRgp(278) chimeric receptor (UniProt Q00560+Q99062); experiment: Self-renewal response of GRgp130 transfectants to G-CSF; type: cell-based; settings: GRgp(278) transfectants, 6 days, 300 fg-30 ng/ml G-CSF
T2 construct: fusing the extracellular domain of the human G-CSFR to an EcoRI fragment of mouse gp130; an EcoRI fragment of mouse gp130 containing the transmembrane domain and the entire cytoplasmic region; expressed in transfected cells
T2 sequence (Q00560 640-917 limits assumed, change not shown, one chain of several): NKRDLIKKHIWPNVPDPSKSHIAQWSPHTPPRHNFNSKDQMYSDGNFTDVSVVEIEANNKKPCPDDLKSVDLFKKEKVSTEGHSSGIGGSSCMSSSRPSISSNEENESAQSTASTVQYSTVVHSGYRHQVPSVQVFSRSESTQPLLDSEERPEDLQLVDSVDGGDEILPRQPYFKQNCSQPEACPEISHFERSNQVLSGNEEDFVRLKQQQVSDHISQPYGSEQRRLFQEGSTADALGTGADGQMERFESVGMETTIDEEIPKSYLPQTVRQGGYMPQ
Protocol: (§1) Photomicrographs were taken of X-gal stained, representive colonies formed by GRgp(278) and GRgp(Y118F) transfectants after 6 days culture with 300 fg, 30 pg and 30 ng/ml of G-CSF. Photomicrographs were also taken of representative colonies formed by GRgp(278) and GRgp(Y118F) transfectants after 6 days culture with no cytokine, IL-6 (100 ng/ml+sIL-6R), G-CSF(30 ng/ml) or, IL-6(100 ng/ml+sIL-6R) and G-CSF(30 ng/ml).
(§2) All assays were performed in triplicate.

[2] = biological target: T1, GRgp(Y118F) chimeric receptor; experiment: as above; type: cell-based; settings: GRgp(Y118F) ES cells, 6 days, 300 fg-30 ng/ml G-CSF
Protocol: as §1, §2

Protocol for D027 ES cells: Data were collected as means±s.e.m for duplicate determinations of triplicate samples normalized relative to the response to LIF. […] Data was collected as means±s.e.m for duplicate determinations of triplicate samples normalized relative to the maximum response of cells to treatment with LIF(111 U/ml) plus vehicle.
Expression of β-galactosidase from the Oct-4 locus in D027 cells was quantitated in an ONPG assay. Cells were plated at 5000 per well in a 24-well dishes and cultured for 6 days in the presence or absence of cytokine. When cells were treated with PD098059, they were plated at 2500 per well and cultured overnight in normal growth medium prior to addition of the inhibitor. On day 6, cells were washed once with PBS and lysed in 0.4 ml of 0.25 M Tris pH 7.5, 0.5 mM DTT, 0.5 % NP40. Lysate (40 μl) was mixed with 100 μl of ONPG buffer (60 mM Na2HPO4, 40 mM NaH2PO4, 10 mM KCl, 1 mM MgCl2, 50 mM 2-mercaptoethanol, 1.2 mM ONPG) in a microtitre plate, incubated at 37° C. for 2-4 hours and the absorbance was read at 420 nm. All assays were performed in triplicate.
D027 cells have a LacZ gene inserted within the stem cell specific gene, Oct-4. As a consequence, expression of this integrated reporter gene is restricted to undifferentiated ES cells and the resulting β-galactosidase activity provides a measure of stem cell self-renewal.
To test this hypothesis, D027 cells were cultured in the presence of the specific MEK inhibitor, PD098059. A sub-saturating concentration of LIF (5 U/ml) was used in these experiments to increase these sensitivity of the assay to changes in self-renewal signaling.
Self-renewal ES cells was assayed flowing treatment with 0.1-100 U/ml LIF either in the presence of 25 μM PD098059 or vehicle (02% DMSO).

G-CSF concentration at which self-renewal reaches a plateau [1]	G-CSF concentration at which maximal self-renewal response was achieved [2]	Molecule	effect on dose response of ES cells to LIF (β-galactosidase activity) (D027 ES cells; 25 μM PD098059 versus vehicle, 0.1-100 U/ml LIF)	effect on ES cell self-renewal compared with vehicle alone (D027 ES cells; 3-25 μM PD098059, sub-saturating LIF (5 U/ml))	effect on differentiation of ES cells in the absence of LIF (D027 ES cells; absence of LIF)	concentration at which maximum level of self-renewal is achieved (D027 ES cells; sub-saturating LIF (5 U/ml), dose dependent increase)	contribution of treated ES cells to chimaeras (β-galactosidase staining of mid-gestation embryos) (ZIN40 ES cells)	representation of undifferentiated β-galactosidase positive cells (IOUD2 ES cells; 0, 25, 50, 75 or 100 μm, aggregates 6 days, no inhibitor as control)	concentration at which the great majority of cells were undifferentiated (IOUD2 ES cells; aggregates maintained 6 days)	concentration at which G-CSF dependent phosphorylation of ERK1 and ERK2 was effectively blocked (ERK1 and ERK2)	concentration range over which G-CSF dependent phosphorylation of ERK1 and ERK2 was progressively reduced (ERK1 and ERK2)
		COc1cccc(-c2cc(=O)c3ccccc3o2)c1N [PD098059]	increased the level of β-galactosidase activity at all concentrations of LIF	did not inhibit self-renewal	did not block the differentiation of ES cells	12 to 25 µM	contributed to chimaeras	increased in a dose dependent fashion	75 to 100 µM	25 µM	3 to 12 µM
3 to 30 ng/mL	30 pg/mL	B1									
